Test results published in US12178882B2, “Alpha polyglutamated pemetrexed and uses thereof” (L.E.A.F. HOLDINGS GROUP LLC, priority 2016, dated 2024).

Assays:
AML12 liver cells = experiment: Toxicity to AML12 liver cells; type: cell-based; settings: all doses studied (16-128 nM), 48 hours, FIG. 16
Text: (§1) Methodologies used for cell line AML12 (non-cancerous liver cells) and CCD841 (non-cancerous colon epithelial cells) are similar to the methods used for cancer cells.

[1] = system: CCD841 colon epithelium cells; experiment: Toxicity to CCD841 colon epithelium cells; type: cell-based; settings: all concentrations tested (16-128 nM), 48 hours, FIG. 17
Text: as §1

[2] = biological target: T1, reduced folate carriers (RFCs) (Homo sapiens, UniProt P41440); settings: higher than MTX; cited from earlier work
T1 sequence (P41440 1-591): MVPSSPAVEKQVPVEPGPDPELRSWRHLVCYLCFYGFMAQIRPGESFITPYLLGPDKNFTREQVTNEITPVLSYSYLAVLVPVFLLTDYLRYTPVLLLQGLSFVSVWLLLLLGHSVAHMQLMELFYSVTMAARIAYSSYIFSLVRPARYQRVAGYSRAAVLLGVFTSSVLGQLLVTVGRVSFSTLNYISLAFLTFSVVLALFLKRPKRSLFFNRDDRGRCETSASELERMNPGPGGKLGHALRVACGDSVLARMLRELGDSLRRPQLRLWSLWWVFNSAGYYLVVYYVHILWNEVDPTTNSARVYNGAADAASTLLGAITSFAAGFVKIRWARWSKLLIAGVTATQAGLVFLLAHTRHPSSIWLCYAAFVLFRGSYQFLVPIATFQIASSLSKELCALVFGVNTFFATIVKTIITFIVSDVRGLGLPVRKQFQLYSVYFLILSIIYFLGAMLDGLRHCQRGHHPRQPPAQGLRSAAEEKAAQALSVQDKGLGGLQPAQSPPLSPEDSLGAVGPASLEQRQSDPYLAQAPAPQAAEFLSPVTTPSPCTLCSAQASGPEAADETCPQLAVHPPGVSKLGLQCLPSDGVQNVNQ

In the case of `Nc1nc2[nH]cc(CCc3ccc(C(=O)N[C@@H](CCC(=O)O)C(=O)O)cc3)c2c(=O)[nH]1` [pemetrexed], the “Reduction in the AML12 liver cell counts” value (AML12 liver cells) is listed as “approximately 40%”, the “Decrease in the number of CCD841 colon epithelium cells” value [1] is listed as at least 50% and the “Affinity of RFCs for PMX relative to that for MTX” value [2] is listed as 2 fold.
